# Assay results as given in patent US20210353593A1 (Chinook Therapeutics, Inc., priority 2019, published 2021).
# Entries after “also recorded” stand apart in the source; their conditions may differ.
# Columns and labels:
# [1] = test system: primary human renal mesangial cells (HRMCs); experiment: Proliferation (BrdU) of primary human renal mesangial cells stimulated with IgA-containing immune complexes; format: cell-based
# Excerpt: Primary human mesangial cells in a culture were stimulated with pathogenic galactose deficient (Gd)-IgA containing immune complexes isolated from human IgA nephropathy patients.
# Specifically, pathogenic IgA-containing immune complexes were isolated from serum from either IgA nephropathy patients or age, gender and ethnicity-matched healthy individuals. Frozen serum was purchased from BioIVT and IgA-containing immune complexes were purified using jacalin affinity chromatography. […] Purified IgA-containing immune complexes were concentrated using a 100K Amicon filtration unit and the amount of total IgA and galactose-deficient IgA (Gd-IgA) in the immune complexes was measured by ELISA (ThermoFisher and IBL America, respectively). […] See, e.g., Novak et. al., Kidney International, 67, pp. 504-516; 2005; Novak et. al., Nephrol. Dial. Transplant, 26, pp. 3451-3457; 2011; Liang et. al., Cell Physiol. Biochem., 36, pp. 1793-1808; 2015; Nguyen et. al., Clin. Kidney 1, 12 (2), pp, 232-238; 2019.
# [2] = test system: canonical signaling pathways in kidney tissue of g-ddY mice; experiment: Ingenuity Pathway Analysis (IPA) canonical pathways, g-ddY mouse kidney RNA-seq; format: in vivo
# [3] = patients with diabetic kidney disease; cited from earlier work
# [4] = test system: IL-6 production in primary human mesangial cells; experiment: ET-1 induced IL-6 production (ELISA) in primary human renal mesangial cells; format: cell-based; settings: 72 hours; 10 ng/mL ET-1; read-out: IC50, ET-1 stimulated IL-6 production in HRMCs
structure (smiles),measurement,setting,value
"CCCCN(CCCC)C(=O)CN1C[C@H](c2ccc3c(c2)OCO3)[C@@H](C(=O)O)[C@@H]1c1ccc(OC)cc1 [Atrasentan, (2R,3R,4S)-4-(1,3-benzodioxol-5-yl)-1-[2-(dibutylamino)-2-oxoethyl]-2-(4-methoxyphenyl)pyrrolidine-3-carboxylic acid]",basal cell proliferation in HRMCs,[1]; IgA containing serum fractions from healthy controls,no effect
same,proliferation of HRMCs induced by IgA containing immune complexes from patients with IgA nephropathy,"[1]; immune complexes from three separate IgAN patients, BrdU",reduces the proliferation; also recorded: significantly attenuated the hyperproliferation
same,Acute Myeloid Leukemia Signaling z-score,[2]; 10 mg/kg/day,−0.258
same,Acute Phase Response Signaling z-score,[2]; 10 mg/kg/day,−1.177
same,Apelin Cardiac Fibroblast Signaling Pathway z-score,[2]; 10 mg/kg/day,1.134
same,CXCR4 Signaling z-score,[2]; 10 mg/kg/day,0
same,Cardiac Hypertrophy Signaling (Enhanced) z-score,[2]; 10 mg/kg/day,0.361
same,Folate Polyglutamylation z-score,[2]; 10 mg/kg/day,−1
same,GM-CSF Signaling z-score,[2]; 10 mg/kg/day,−0.243
same,GP6 Signaling Pathway z-score,[2]; 10 mg/kg/day,0
same,Glioblastoma Multiforme Signaling z-score,[2]; 10 mg/kg/day,1
same,Glioma Signaling z-score,[2]; 10 mg/kg/day,0.5
same,Gluconeogenesis I z-score,[2]; 10 mg/kg/day,0.905
same,Glutathione Redox Reactions I z-score,[2]; 10 mg/kg/day,−0.302
same,Glycolysis I z-score,[2]; 10 mg/kg/day,0.577
same,Gα12/13 Signaling z-score,[2]; 10 mg/kg/day,−1.279
same,Gαg Signaling z-score,[2]; 10 mg/kg/day,1
same,HGF Signaling z-score,[2]; 10 mg/kg/day,−0.688
same,Hepatic Fibrosis Signaling Pathway z-score,[2]; 10 mg/kg/day,−0.25
same,IGF-1 Signaling z-score,[2]; 10 mg/kg/day,0.243
same,IL-8 Signaling z-score,[2]; 10 mg/kg/day,0.365
same,Integrin Signaling z-score,[2]; 10 mg/kg/day,−0.928
same,LPS/IL-1 Mediated Inhibition of RXR Function z-score,[2]; 10 mg/kg/day,0.535
same,Lymphotoxin β Receptor Signaling z-score,[2]; 10 mg/kg/day,−1.508
same,Macropinocytosis Signaling z-score,[2]; 10 mg/kg/day,0.277
same,NF-κB Activation by Viruses z-score,[2]; 10 mg/kg/day,0
same,NF-κB Signaling z-score,[2]; 10 mg/kg/day,0.507
same,NRF2-mediated Oxidative Stress Response z-score,[2]; 10 mg/kg/day,0.471
same,Oxidative Phosphorylation z-score,[2]; 10 mg/kg/day,−0.309
same,PDGF Signaling z-score,[2]; 10 mg/kg/day,−0.5
same,PEDF Signaling z-score,[2]; 10 mg/kg/day,0
same,PI3K Signaling in B Lymphocytes z-score,[2]; 10 mg/kg/day,0.426
same,PI3K/AKT Signaling z-score,[2]; 10 mg/kg/day,0.447
same,PTEN Signaling z-score,[2]; 10 mg/kg/day,−0.426
same,Paxillin Signaling z-score,[2]; 10 mg/kg/day,−1
same,Relaxin Signaling z-score,[2]; 10 mg/kg/day,−0.535
same,STAT3 Pathway z-score,[2]; 10 mg/kg/day,−0.218
same,Sirtuin Signaling Pathway z-score,[2]; 10 mg/kg/day,0.849
same,Small Cell Lung Cancer Signaling z-score,[2]; 10 mg/kg/day,−0.905
same,Sperm Motility z-score,[2]; 10 mg/kg/day,1.213
same,Sphingosine-1-phosphate Signaling z-score,[2]; 10 mg/kg/day,−0.218
same,TCA Cycle II (Eukalyotic) z-score,[2]; 10 mg/kg/day,0.277
same,TNFR2 Signaling z-score,[2]; 10 mg/kg/day,−1.89
same,Thrombin Signaling z-score,[2]; 10 mg/kg/day,1.3
same,Toll-like Receptor Signaling z-score,[2]; 10 mg/kg/day,−0.302
same,Tryptophan Degradation III (Eukalyotic) z-score,[2]; 10 mg/kg/day,0.378
same,Xenobiotic Metabolism General Signaling Pathway z-score,[2]; 10 mg/kg/day,−0.577
same,Acute Myeloid Leukemia Signaling z-score,[2]; 20 mg/kg/day,−0.853
same,Acute Phase Response Signaling z-score,[2]; 20 mg/kg/day,−1.298
same,Apelin Cardiac Fibroblast Signaling Pathway z-score,[2]; 20 mg/kg/day,0.577
same,CXCR4 Signaling z-score,[2]; 20 mg/kg/day,0.333
same,Cardiac Hypertrophy Signaling (Enhanced) z-score,[2]; 20 mg/kg/day,−0.396
same,Folate Polyglutamylation z-score,[2]; 20 mg/kg/day,0.447
same,GM-CSF Signaling z-score,[2]; 20 mg/kg/day,−1.46
same,GP6 Signaling Pathway z-score,[2]; 20 mg/kg/day,−1.715
same,Glioblastoma Multiforme Signaling z-score,[2]; 20 mg/kg/day,−0.16
same,Glioma Signaling z-score,[2]; 20 mg/kg/day,−0.816
same,Gluconeogenesis I z-score,[2]; 20 mg/kg/day,−0.302
same,Glutathione Redox Reactions I z-score,[2]; 20 mg/kg/day,−0.277
same,Glycolysis I z-score,[2]; 20 mg/kg/day,0
same,Gα12/13 Signaling z-score,[2]; 20 mg/kg/day,−0.707
same,Gαg Signaling z-score,[2]; 20 mg/kg/day,−0.822
same,HGF Signaling z-score,[2]; 20 mg/kg/day,0
same,Hepatic Fibrosis Signaling Pathway z-score,[2]; 20 mg/kg/day,−3.181
same,IGF-1 Signaling z-score,[2]; 20 mg/kg/day,−0.408
same,IL-8 Signaling z-score,[2]; 20 mg/kg/day,−0.905
same,Integrin Signaling z-score,[2]; 20 mg/kg/day,−1.342
same,LPS/IL-1 Mediated Inhibition of RXR Function z-score,[2]; 20 mg/kg/day,0.626
same,Lymphotoxin β Receptor Signaling z-score,[2]; 20 mg/kg/day,−1.291
same,Macropinocytosis Signaling z-score,[2]; 20 mg/kg/day,0.243
same,NF-κB Activation by Viruses z-score,[2]; 20 mg/kg/day,−0.816
same,NF-κB Signaling z-score,[2]; 20 mg/kg/day,−1.313
same,NRF2-mediated Oxidative Stress Response z-score,[2]; 20 mg/kg/day,−0.392
same,Oxidative Phosphorylation z-score,[2]; 20 mg/kg/day,−0.283
same,PDGF Signaling z-score,[2]; 20 mg/kg/day,−2.353
same,PEDF Signaling z-score,[2]; 20 mg/kg/day,−1.043
same,PI3K Signaling in B Lymphocytes z-score,[2]; 20 mg/kg/day,−1.333
same,PI3K/AKT Signaling z-score,[2]; 20 mg/kg/day,−0.18
same,PTEN Signaling z-score,[2]; 20 mg/kg/day,1.029
same,Paxillin Signaling z-score,[2]; 20 mg/kg/day,−0.626
same,Relaxin Signaling z-score,[2]; 20 mg/kg/day,−0.853
same,STAT3 Pathway z-score,[2]; 20 mg/kg/day,0.192
same,Sirtuin Signaling Pathway z-score,[2]; 20 mg/kg/day,0.62
same,Small Cell Lung Cancer Signaling z-score,[2]; 20 mg/kg/day,−1.886
same,Sperm Motility z-score,[2]; 20 mg/kg/day,1.633
same,Sphingosine-1-phosphate Signaling z-score,[2]; 20 mg/kg/day,−0.73
same,TCA Cycle II (Eukalyotic) z-score,[2]; 20 mg/kg/day,−0.535
same,TNFR2 Signaling z-score,[2]; 20 mg/kg/day,0
same,Thrombin Signaling z-score,[2]; 20 mg/kg/day,−0.926
same,Toll-like Receptor Signaling z-score,[2]; 20 mg/kg/day,−0.258
same,Tryptophan Degradation III (Eukalyotic) z-score,[2]; 20 mg/kg/day,−1.265
same,Xenobiotic Metabolism General Signaling Pathway z-score,[2]; 20 mg/kg/day,−1.581
same,Acute Myeloid Leukemia Signaling z-score,[2]; 30 mg/kg/day,−1.134
same,Acute Phase Response Signaling z-score,[2]; 30 mg/kg/day,−2.832
same,Apelin Cardiac Fibroblast Signaling Pathway z-score,[2]; 30 mg/kg/day,1.732
same,CXCR4 Signaling z-score,[2]; 30 mg/kg/day,−2.214
same,Cardiac Hypertrophy Signaling (Enhanced) z-score,[2]; 30 mg/kg/day,−6.236
same,Folate Polyglutamylation z-score,[2]; 30 mg/kg/day,1.342
same,GM-CSF Signaling z-score,[2]; 30 mg/kg/day,−1.225
same,GP6 Signaling Pathway z-score,[2]; 30 mg/kg/day,−4.938
same,Glioblastoma Multiforme Signaling z-score,[2]; 30 mg/kg/day,−3.464
same,Glioma Signaling z-score,[2]; 30 mg/kg/day,−2.353
same,Gluconeogenesis I z-score,[2]; 30 mg/kg/day,3.464
same,Glutathione Redox Reactions I z-score,[2]; 30 mg/kg/day,2.496
same,Glycolysis I z-score,[2]; 30 mg/kg/day,3.051
same,Gα12/13 Signaling z-score,[2]; 30 mg/kg/day,−0.949
same,Gαg Signaling z-score,[2]; 30 mg/kg/day,−2.16
same,HGF Signaling z-score,[2]; 30 mg/kg/day,−3.182
same,Hepatic Fibrosis Signaling Pathway z-score,[2]; 30 mg/kg/day,−5.058
same,IGF-1 Signaling z-score,[2]; 30 mg/kg/day,−1.633
same,IL-6 signaling,[2]; 30 mg/kg/day,reduced
same,IL-8 Signaling z-score,[2]; 30 mg/kg/day,−2.828
same,Integrin Signaling z-score,[2]; 30 mg/kg/day,−3.311
same,LPS/IL-1 Mediated Inhibition of RXR Function z-score,[2]; 30 mg/kg/day,−2.746
same,Lymphotoxin β Receptor Signaling z-score,[2]; 30 mg/kg/day,−2.183
same,Macropinocytosis Signaling z-score,[2]; 30 mg/kg/day,−2.828
same,NF-κB Activation by Viruses z-score,[2]; 30 mg/kg/day,−3.9
same,NF-κB Signaling z-score,[2]; 30 mg/kg/day,−4.636
same,NF-κB signaling,[2]; 30 mg/kg/day,reduced
same,NRF2-mediated Oxidative Stress Response z-score,[2]; 30 mg/kg/day,1.3
same,Oxidative Phosphorylation z-score,[2]; 30 mg/kg/day,7.02
same,PDGF Signaling z-score,[2]; 30 mg/kg/day,−3.528
same,PDGF signaling,[2]; 30 mg/kg/day,reduced
same,PEDF Signaling z-score,[2]; 30 mg/kg/day,−3.922
same,PI3K Signaling in B Lymphocytes z-score,[2]; 30 mg/kg/day,−4.041
same,PI3K/AKT Signaling z-score,[2]; 30 mg/kg/day,−1.947
same,PTEN Signaling z-score,[2]; 30 mg/kg/day,2.214
same,Paxillin Signaling z-score,[2]; 30 mg/kg/day,−2.268
same,Relaxin Signaling z-score,[2]; 30 mg/kg/day,−2.449
same,STAT3 Pathway z-score,[2]; 30 mg/kg/day,−2.556
same,Sirtuin Signaling Pathway z-score,[2]; 30 mg/kg/day,−1.254
same,Small Cell Lung Cancer Signaling z-score,[2]; 30 mg/kg/day,−2.236
same,Sperm Motility z-score,[2]; 30 mg/kg/day,−2.263
same,Sphingosine-1-phosphate Signaling z-score,[2]; 30 mg/kg/day,−1.808
same,TCA Cycle II (Eukalyotic) z-score,[2]; 30 mg/kg/day,3.207
same,TNFR2 Signaling z-score,[2]; 30 mg/kg/day,−1.291
same,Thrombin Signaling z-score,[2]; 30 mg/kg/day,−2.828
same,Toll-like Receptor Signaling z-score,[2]; 30 mg/kg/day,−2.982
same,Tryptophan Degradation III (Eukalyotic) z-score,[2]; 30 mg/kg/day,3.742
same,Xenobiotic Metabolism General Signaling Pathway z-score,[2]; 30 mg/kg/day,−0.152
same,risk of renal events (doubling of serum creatinine or end-stage kidney disease),[3],significantly reducing the risk of renal events
same,IC50,[4],0.65 nM
